Experimental data as given in US9670206B2, “Pyrido[4,3-B]pyrazine-2-carboxamides as neurogenic agents for the treatment of neurodegenerative disorders” (Hoffmann-La Roche Inc., priority 2013, dated 2017).

Test system: human embryonic stem cell derived neural stem cells (NSCs)
Test: Neural stem cell proliferation assay (neurogenesis assay, ATP levels by CellTiterGlo)
Assay type: cell-based
Details: 96 h, compound concentration at which 150% activity of control (100%) is reached, NSC proliferation, ATP readout after 4 days incubation
Method: Neural Stem Cell Proliferation Assay
Neurogenic properties of small molecules are determined based on the proliferation of human embryonic stem cell derived neural stem cells (NSCs) which were derived via a dual smad inhibition as previously described (Chambers, S. M., et al., Highly efficient neural conversion of human ES and iPS cells by dual inhibition of SMAD signaling, Nature biotechnology, 2009. 27(3): p. 275-80.) Compounds respond is measured by the increase in cells based on ATP levels (Promega:CellTiterGlo®) after an incubation period of 4 days. NSCs are thawed and expanded over 3 passages. On the 14th day, NSCs are seeded in Polyornithin/Laminin coated 384 well plates at a cell density of 21,000 cells/cm^2 in a media volume of 38 μl. 4 hours after cell seeding, compound solutions are added at a volume of 2 μl. Stock solutions of the compounds (water, 5% DMSO) are diluted to obtain a dose response (11 points, dilution factor is 2), ranging from 8 μM to 8 nM. Controls are run to consistently determine the neurogenic properties of the cells: Negative (neutral) control is cell culture Media (final DMSO concentration: 0.25%). Positive controls are: • 1. cell culture Media+100 ng/ml FGF2 (final DMSO concentration: 0.1%) • 2. cell culture Media+20 ng/ml EGF (final DMSO concentration: 0.1%) • 3. cell culture Media+100 ng/ml Wnt3a (final DMSO concentration: 0.1%) After 4 days incubation at 37° C., 5% CO2, the amount of ATP per well is quantified. The ATP concentration is proportional to the cell number. ATP is quantified by using the Promega CellTiterGlo® kit. The CellTiterGlo® reagents contain a cell lysis buffer, a thermo stable luciferase (UltraGlo™ recombinant luciferase), magnesium and luciferin. Luciferin reacts with ATP producing oxyluciferin, AMP and light. The luminescence signal is proportional to the ATP content. The value of negative (neutral) control is determined for each assay plate by taking the average of 16 negative control wells. The neurogenic compound response is calculated for each compound as (compound/Negative Control)*100. The values of EC150 from the dose response curve are determined for each test compound. The EC150 is the compound concentration at which 150% activity of control (100%) is reached.

Structure (SMILES)	EC (150% of control)
NC(=O)c1cnc2cncc(-c3ccc(Cl)cc3)c2n1 [Example 1, 8-(4-Chlorophenyl)pyrido[4,3-b]pyrazine-2-carboxamide]	0.21 µM
NC(=O)c1cnc2cncc(-c3ccc(C(F)(F)F)cc3)c2n1 [Example 2, 8-(4-(Trifluoromethyl)phenyl)pyrido[4,3-b]pyrazine-2-carboxamide]	0.3 µM
N#CC1(NC(=O)c2cnc3cncc(Br)c3n2)CC1 [Example 3, 8-Bromo-N-(1-cyanocyclopropyl)pyrido[4,3-b]pyrazine-2-carboxamide]	2.32 µM
O=C(c1cnc2cncc(Br)c2n1)N1CCOCC1 [Example 4, (8-Bromopyrido[4,3-b]pyrazin-2-yl)(morpholino)methanone]	0.07 µM
CC(NC(=O)c1cnc2cncc(-c3ccc(Cl)cc3)c2n1)C(C)(C)O (stereo not drawn) [Example 5, 8-(4-Chlorophenyl)-N-(3-hydroxy-3-methylbutan-2-yl)pyrido[4,3-b]pyrazine-2-carboxamide]	0.89 µM
CC(NC(=O)c1cnc2cncc(-c3ccc(C(F)(F)F)cc3)c2n1)C(C)(C)O (stereo not drawn) [Example 6, N-(3-Hydroxy-3-methylbutan-2-yl)-8-(4-(trifluoromethyl)phenyl)pyrido[4,3-b]pyrazine-2-carboxamide]	0.38 µM
N#CC1(NC(=O)c2cnc3cncc(-c4ccc(Cl)cc4)c3n2)CC1 [Example 7, 8-(4-Chlorophenyl)-N-(1-cyanocyclopropyl)pyrido[4,3-b]pyrazine-2-carboxamide]	0.39 µM
N#CC1(NC(=O)c2cnc3cncc(-c4ccc(C(F)(F)F)cc4)c3n2)CC1 [Example 8, N-(1-Cyanocyclopropyl)-8-(4-(trifluoromethyl)phenyl)pyrido[4,3-b]pyrazine-2-carboxamide]	0.39 µM
O=C(c1cnc2cncc(-c3ccc(Cl)cc3)c2n1)N1CCOCC1 [Example 9, (8-(4-Chlorophenyl)pyrido[4,3-b]pyrazin-2-yl)(morpholino)methanone]	0.65 µM
O=C(c1cnc2cncc(-c3ccc(C(F)(F)F)cc3)c2n1)N1CCOCC1 [Example 10, Morpholino(8-(4-(trifluoromethyl)phenyl)pyrido[4,3-b]pyrazin-2-yl)methanone]	2.96 µM
O=C(NCc1ccccc1)c1cnc2cncc(-c3ccc(C(F)(F)F)cc3)c2n1 [Example 11, N-Benzyl-8-(4-(trifluoromethyl)phenyl)pyrido[4,3-b]pyrazine-2-carboxamide]	0.41 µM
O=C(NCc1ccccc1)c1cnc2cncc(-c3ccc(Cl)cc3)c2n1 [Example 12, N-Benzyl-8-(4-chlorophenyl)pyrido[4,3-b]pyrazine-2-carboxamide]	0.26 µM
NC(=O)c1cnc2cncc(-c3ccc(Cl)cc3Cl)c2n1 [Example 13, 8-(2,4-Dichlorophenyl)pyrido[4,3-b]pyrazine-2-carboxamide]	0.28 µM
NC(=O)c1cnc2cncc(-c3ccc(F)cc3)c2n1 [Example 14, 8-(4-Fluorophenyl)pyrido[4,3-b]pyrazine-2-carboxamide]	0.1 µM
NC(=O)c1cnc2cncc(-c3cc(F)c(F)c(F)c3)c2n1 [Example 15, 8-(3,4,5-Trifluorophenyl)pyrido[4,3-b]pyrazine-2-carboxamide]	0.55 µM
NC(=O)c1cnc2cncc(-c3ccccc3F)c2n1 [Example 16, 8-(2-Fluorophenyl)pyrido[4,3-b]pyrazine-2-carboxamide]	0.06 µM
NC(=O)c1cnc2cncc(-c3ccc(C(F)(F)F)cc3F)c2n1 [Example 17, 8-(2-Fluoro-4-(trifluoromethyl)phenyl)pyrido[4,3-b]pyrazine-2-carboxamide]	0.08 µM
NC(=O)c1cnc2cncc(-c3ccc(Cl)nc3)c2n1 [Example 18, 8-(6-Chloropyridin-3-yl)pyrido[4,3-b]pyrazine-2-carboxamide]	0.21 µM
NC(=O)c1cnc2cncc(-c3ccc(OC(F)(F)F)cc3)c2n1 [Example 19, 8-(4-(Trifluoromethoxy)phenyl)pyrido[4,3-b]pyrazine-2-carboxamide]	0.09 µM
NC(=O)c1cnc2cncc(-c3cc(C(F)(F)F)ccc3F)c2n1 [Example 20, 8-(2-Fluoro-5-(trifluoromethyl)phenyl)pyrido[4,3-b]pyrazine-2-carboxamide]	0.22 µM

Structure (SMILES)	EC (150% of control)
NC(=O)c1cnc2cncc(-c3cccc(OC(F)(F)F)c3)c2n1 [Example 21, 8-(3-(Trifluoromethoxy)phenyl)pyrido[4,3-b]pyrazine-2-carboxamide]	0.21 µM
NC(=O)c1cnc2cncc(-c3ccc(Cl)cc3F)c2n1 [Example 22, 8-(4-Chloro-2-fluorophenyl)pyrido[4,3-b]pyrazine-2-carboxamide]	0.07 µM
NC(=O)c1cnc2cncc(-c3ccc(Cl)c(F)c3)c2n1 [Example 23, 8-(4-Chloro-3-fluorophenyl)pyrido[4,3-b]pyrazine-2-carboxamide]	0.1 µM
NC(=O)c1cnc2cncc(-c3ccc(C(F)(F)F)c(F)c3)c2n1 [Example 24, 8-(3-Fluoro-4-(trifluoromethyl)phenyl)pyrido[4,3-b]pyrazine-2-carboxamide]	0.18 µM
NC(=O)c1cnc2cncc(C3=CCOCC3)c2n1 [Example 25, 8-(3,6-Dihydro-2H-pyran-4-yl)pyrido[4,3-b]pyrazine-2-carboxamide]	0.66 µM
NC(=O)c1cnc2cncc(-c3cccc(C(F)(F)F)c3)c2n1 [Example 26, 8-(3-(Trifluoromethyl)phenyl)pyrido[4,3-b]pyrazine-2-carboxamide]	0.43 µM
NC(=O)c1cnc2cncc(-c3ccc(F)c(F)c3)c2n1 [Example 27, 8-(3,4-Difluorophenyl)pyrido[4,3-b]pyrazine-2-carboxamide]	0.12 µM
O=C(c1cnc2cncc(-c3ccc(C(F)(F)F)cc3)c2n1)N1CCC(O)C1 (stereo not drawn) [Example 28, (3-Hydroxypyrrolidin-1-yl)(8-(4-(trifluoromethyl)phenyl)pyrido[4,3-b]pyrazin-2-yl)methanone]	0.29 µM
NC(=O)c1cnc2cncc(-c3ccc(CO)cc3)c2n1 [Example 29, 8-(4-(Hydroxymethyl)phenyl)pyrido[4,3-b]pyrazine-2-carboxamide]	0.05 µM
O=C(c1cnc2cncc(-c3ccc(Cl)cc3)c2n1)N1CCC(O)C1 (stereo not drawn) [Example 30, (8-(4-Chlorophenyl)pyrido[4,3-b]pyrazin-2-yl)(3-hydroxypyrrolidin-1-yl)methanone]	0.69 µM
O=C(NCc1ccccc1)c1cnc2cncc(-c3cccnc3)c2n1 [Example 31, N-Benzyl-8-(pyridin-3-yl)pyrido[4,3-b]pyrazine-2-carboxamide]	0.47 µM
O=C(c1cnc2cncc(-c3ccc(Cl)cc3)c2n1)N1CCS(=O)(=O)CC1 [Example 32, [8-(4-Chlorophenyl)pyrido[3,4-b]pyrazin-2-yl]-(1,1-dioxo-1,4-thiazinan-4-yl)methanone]	0.84 µM
O=C(c1cnc2cncc(-c3ccc(C(F)(F)F)cc3)c2n1)N1CCS(=O)(=O)CC1 [Example 33, (1,1-Dioxo-1,4-thiazinan-4-yl)-[8-[4-(trifluoromethyl)phenyl]pyrido[3,4-b]pyrazin-2-yl]methanone]	1.65 µM
N#Cc1ccc(-c2cncc3ncc(C(N)=O)nc23)cc1 [Example 34, 8-(4-Cyanophenyl)pyrido[4,3-b]pyrazine-2-carboxamide]	0.15 µM
CC(C)(C)NC(=O)c1cnc2cncc(-c3ccc(C(F)(F)F)cc3)c2n1 [Example 35, N-tert-Butyl-8-(4-(trifluoromethyl)phenyl)pyrido[4,3-b]pyrazine-2-carboxamide]	0.32 µM
CC(NC(=O)c1cnc2cncc(-c3ccc(Cl)cc3Cl)c2n1)C(C)(C)O (stereo not drawn) [Example 36, 8-(2,4-Dichlorophenyl)-N-(3-hydroxy-3-methylbutan-2-yl)pyrido[4,3-b]pyrazine-2-carboxamide]	1.5 µM
CC(NC(=O)c1cnc2cncc(-c3ccccc3Cl)c2n1)C(C)(C)O (stereo not drawn) [Example 37, 8-(2-Chlorophenyl)-N-(3-hydroxy-3-methylbutan-2-yl)pyrido[4,3-b]pyrazine-2-carboxamide]	1.13 µM
O=C(c1cnc2cncc(-c3ccc(Cl)cc3F)c2n1)N1CCC(O)C1 (stereo not drawn) [Example 38, (8-(4-Chloro-2-fluorophenyl)pyrido[4,3-b]pyrazin-2-yl)(3-hydroxypyrrolidin-1-yl)methanone]	0.1 µM
O=C(c1cnc2cncc(-c3ccc(Cl)cc3Cl)c2n1)N1CCC(O)C1 (stereo not drawn) [Example 39, (8-(2,4-Dichlorophenyl)pyrido[4,3-b]pyrazin-2-yl)(3-hydroxypyrrolidin-1-yl)methanone]	0.11 µM
